Source: PubChem BioAssay (NCI)
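Interpolation was linear, between the two tested concentrations surrounding the appropriate level; five concentrations were tested over 48 hours in 96-well plates. TGI: concentration producing complete growth inhibition.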

Columns and labels:
Experiment in all cases: NCI tumour cell line growth inhibition, 48 h
[1] = test system: BT-549 breast
[2] = test system: SK-MEL-28 melanoma
[3] = test system: LOX IMVI melanoma
[4] = test system: A549 NSCLC
[5] = test system: SW-620 colon
[6] = test system: KM12 colon
[7] = test system: NCI-H226 lung
[8] = test system: NCI-H23 lung
[9] = test system: RXF 393 renal
[10] = test system: UACC-257 melanoma
[11] = test system: MALME-3M melanoma
[12] = test system: SK-MEL-2 melanoma
[13] = test system: SF-295 CNS
[14] = test system: K-562 leukemia
[15] = test system: 786-0 renal
[16] = test system: SNB-19 CNS
[17] = test system: CCRF-CEM leukemia
[18] = test system: HOP-18 NSCLC
[19] = test system: SK-OV-3 ovarian
[20] = test system: TK-10 renal
[21] = test system: MDA-N
[22] = test system: MDA-MB-231 breast
[23] = test system: CAKI-1 renal
[24] = test system: LXFL 529 NSCLC
[25] = test system: ACHN renal
[26] = test system: U251 CNS
[27] = test system: T-47D breast
[28] = test system: OVCAR-3 ovarian
[29] = test system: HT29 colon
[30] = test system: OVCAR-8 ovarian
[31] = test system: MDA-MB-435
[32] = test system: HCT-116 colon
[33] = test system: SNB-78 CNS
[34] = test system: HS 578T breast
[35] = test system: HOP-62 NSCLC
[36] = test system: OVCAR-5 ovarian
[37] = test system: IGROV1 ovarian
[38] = test system: DLD-1 colon
[39] = test system: HCT-15 colon
[40] = test system: M19-MEL melanoma
[41] = test system: HOP-92 NSCLC
[42] = test system: SR leukemia
[43] = test system: HL-60(TB) leukemia
[44] = test system: NCI/ADR-RES ovarian
[45] = test system: COLO 205 colon
[46] = test system: RPMI-8226 leukemia
[47] = test system: SN12C renal
[48] = test system: EKVX NSCLC
[49] = test system: DU-145 prostate
[50] = test system: PC-3 prostate
[51] = test system: UACC-62 melanoma
[52] = test system: KM20L2 colon
[53] = test system: XF 498 CNS
[54] = test system: SF-539 CNS
[55] = test system: HCC-2998 colon
[56] = test system: UO-31 renal
[57] = test system: A498 renal
[58] = test system: SF-268 CNS
[59] = test system: DMS 273 small cell lung
[60] = test system: OVCAR-4 ovarian
[61] = test system: M14 melanoma
[62] = test system: DMS 114 small cell lung
[63] = test system: MOLT-4 leukemia
[64] = test system: NCI-H522 lung
[65] = test system: SK-MEL-5 melanoma
[66] = test system: MCF7 breast
[67] = test system: NCI-H460 lung
[68] = test system: SNB-75 CNS
[69] = test system: RXF-631 renal

Cn1cnc([N+](=O)[O-])c1Sc1nnc(-c2cccnc2)n1C
TGI [1]: 36.5 µM | TGI [2]: 35.6 µM | TGI [3]: 34.9 µM | TGI [4]: > 100 µM | TGI [5]: 31.3 µM | TGI [6]: > 100 µM | TGI [7]: > 81.6 µM | TGI [8]: 51.7 µM | TGI [9]: 23.9 µM | TGI [10]: 23 µM | TGI [11]: 33.2 µM | TGI [12]: 46.1 µM | TGI [13]: > 100 µM | TGI [14]: 57.8 µM | TGI [15]: 41.6 µM | TGI [16]: > 100 µM | TGI [17]: 45 µM | TGI [18]: 35.6 µM | TGI [19]: > 100 µM | TGI [20]: 32.8 µM | TGI [21]: 43.3 µM | TGI [22]: 39.4 µM | TGI [23]: 42.7 µM | TGI [24]: 24.4 µM | TGI [25]: 36.7 µM | TGI [26]: > 100 µM | TGI [27]: 32 µM | TGI [28]: 35.1 µM | TGI [29]: 47.9 µM | TGI [30]: 59.7 µM | TGI [31]: 30.2 µM | TGI [32]: 40.1 µM | TGI [33]: 63.2 µM | TGI [34]: > 89.4 µM | TGI [35]: > 100 µM | TGI [36]: > 100 µM | TGI [37]: > 100 µM | TGI [38]: 40.5 µM | TGI [39]: 36.2 µM | TGI [40]: 38.8 µM | TGI [41]: 30.6 µM | TGI [42]: 45.5 µM | TGI [43]: 21.1 µM | TGI [44]: > 100 µM | TGI [45]: 28.9 µM | TGI [46]: 49.4 µM | TGI [47]: 60.5 µM | TGI [48]: 66.4 µM | TGI [49]: > 80.7 µM | TGI [50]: > 57.9 µM | TGI [51]: 32.6 µM | TGI [52]: > 100 µM | TGI [53]: 44.8 µM | TGI [54]: 55.2 µM | TGI [55]: 67.1 µM | TGI [56]: 53.8 µM | TGI [57]: > 100 µM | TGI [58]: > 95.7 µM | TGI [59]: > 100 µM | TGI [60]: 56.6 µM | TGI [61]: 35.4 µM | TGI [62]: > 49.2 µM | TGI [63]: 52 µM | TGI [64]: 15.2 µM | TGI [65]: 35.4 µM | TGI [66]: 46.8 µM | TGI [67]: > 100 µM | TGI [68]: > 100 µM

COc1nc(N)c(C(=O)CCl)c(=O)n1C
TGI [2]: 26.4 µM | TGI [3]: 20.8 µM | TGI [4]: 51.6 µM | TGI [5]: 28.5 µM | TGI [6]: 30.4 µM | TGI [7]: 20.5 µM | TGI [9]: 20.6 µM | TGI [10]: 31.3 µM | TGI [11]: 22.7 µM | TGI [12]: 25.1 µM | TGI [13]: 29.4 µM | TGI [14]: 34.3 µM | TGI [16]: 52 µM | TGI [17]: 79.8 µM | TGI [18]: 31.2 µM | TGI [20]: 29 µM | TGI [23]: 23.4 µM | TGI [24]: 27.1 µM | TGI [25]: 48.5 µM | TGI [26]: 29.9 µM | TGI [29]: 32.3 µM | TGI [30]: 52.8 µM | TGI [32]: 31.3 µM | TGI [33]: 40.2 µM | TGI [36]: 37.2 µM | TGI [37]: 30.2 µM | TGI [38]: 27.6 µM | TGI [41]: 16.1 µM | TGI [42]: 42.4 µM | TGI [43]: 5.61 µM | TGI [45]: 30.1 µM | TGI [46]: 32.4 µM | TGI [47]: 45.2 µM | TGI [48]: 31.7 µM | TGI [52]: 50.1 µM | TGI [53]: 32.6 µM | TGI [54]: 32.6 µM | TGI [55]: 23 µM | TGI [56]: 67 µM | TGI [57]: 32.4 µM | TGI [58]: 55.2 µM | TGI [69]: 31.6 µM | TGI [60]: 33.2 µM | TGI [62]: 33.9 µM | TGI [63]: 44.7 µM | TGI [65]: 28.5 µM | TGI [67]: 39.5 µM | TGI [68]: 30.3 µM

CCC12C=CCN3CCC4(C(=C(C(=O)OC)[C@@H]1O)Nc1ccccc14)C32 (some centres undefined)
TGI [2]: 4.13 µM | TGI [3]: 3.26 µM | TGI [4]: 5.15 µM | TGI [5]: 3.3 µM | TGI [6]: 3.19 µM | TGI [7]: 2.71 µM | TGI [8]: 3.72 µM | TGI [9]: 2.65 µM | TGI [10]: 3.42 µM | TGI [11]: 3.43 µM | TGI [12]: 3.84 µM | TGI [13]: 5.7 µM | TGI [14]: > 26.9 µM | TGI [15]: 3.07 µM | TGI [16]: 3.8 µM | TGI [17]: 6 µM | TGI [18]: 4.87 µM | TGI [19]: 6.2 µM | TGI [20]: 5.37 µM | TGI [23]: 7.18 µM | TGI [24]: 3.13 µM | TGI [25]: 3.3 µM | TGI [26]: 5.52 µM | TGI [28]: 3.89 µM | TGI [29]: 3.76 µM | TGI [30]: 5.33 µM | TGI [32]: 2.95 µM | TGI [33]: 7.35 µM | TGI [35]: 4.12 µM | TGI [36]: 4.67 µM | TGI [37]: 3.9 µM | TGI [38]: 3.36 µM | TGI [39]: 3.09 µM | TGI [40]: 3.61 µM | TGI [41]: 4.16 µM | TGI [42]: 4.58 µM | TGI [43]: 4.98 µM | TGI [45]: 3.22 µM | TGI [46]: 6 µM | TGI [47]: 5.71 µM | TGI [48]: 3.92 µM | TGI [51]: 4.76 µM | TGI [52]: 3.54 µM | TGI [53]: 3.05 µM | TGI [54]: 4.72 µM | TGI [55]: 3.06 µM | TGI [56]: 6.49 µM | TGI [57]: 5.28 µM | TGI [58]: 6.76 µM | TGI [59]: 3.37 µM | TGI [60]: 4.17 µM | TGI [61]: 5.54 µM | TGI [62]: 3.24 µM | TGI [63]: 11.7 µM | TGI [64]: 3.06 µM | TGI [65]: 3.45 µM | TGI [67]: 3.71 µM | TGI [68]: 5.8 µM
